Here are results for nine compounds from ChEMBL document CHEMBL4184146, “Interrogating the Roles of Post-Translational Modifications of Non-Histone Proteins” (J Med Chem, 2018).

In assay [1] the target is T1, Geranylgeranyl transferase type I (Homo sapiens, UniProt P49354+P53609). Kind of assay: Inhibition of GGTase1 isolated from human Burkitt's lymphoma cells assessed as decrease in transfer of [3H]H]geranylgeranyl from [3H]geranylgeranyl PPi to H-Ras-CVLL.
In assay [2] the target is T2, Protein farnesyltransferase (Homo sapiens, UniProt P49354+P49356). Kind of assay: Inhibition of FTase isolated from human Burkitt's lymphoma cells assessed as decrease in transfer of [3H]farnesyl from [3H]farnesyl PPi to H-Ras-CVLS.
Assay [3] addresses T2, Protein farnesyltransferase. Kind of assay: Inhibition of FTase (unknown origin) expressed in mouse NIH-3T3 cells transfected with human H-Ras assessed as decrease in farnesylation of H-Ras after 24 hrs by chemoluminescence assay. It counts as cell-based.
In assay [4] the target is T1, Geranylgeranyl transferase type I. In words: Inhibition of GGTase1 (unknown origin) expressed in mouse NIH-3T3 cells transfected with k-Ras4B assessed as decrease in geranylgeranylation of k-Ras4B after 24 hrs by chemoluminescence assay. The assay is classed as cell-based.
Assay [5] has as its target T2, Protein farnesyltransferase. Kind of assay: Inhibition of FTase (unknown origin). It counts as protein-complex assay.
In assay [6] the target is T1, Geranylgeranyl transferase type I. Kind of assay: Inhibition of GGTase1 (unknown origin). It counts as protein-complex assay.
Assay [7] deals with T2, Protein farnesyltransferase. In words: Inhibition of FTase (unknown origin) using H-ras as substrate. The assay is classed as protein-complex assay.
Assay [8] concerns the target T3, Sharpin/RBCK1/RNF31 (Homo sapiens, UniProt Q96EP0+Q9BYM8+Q9H0F6).
T3 sequence (Q9H0F6 whole entry): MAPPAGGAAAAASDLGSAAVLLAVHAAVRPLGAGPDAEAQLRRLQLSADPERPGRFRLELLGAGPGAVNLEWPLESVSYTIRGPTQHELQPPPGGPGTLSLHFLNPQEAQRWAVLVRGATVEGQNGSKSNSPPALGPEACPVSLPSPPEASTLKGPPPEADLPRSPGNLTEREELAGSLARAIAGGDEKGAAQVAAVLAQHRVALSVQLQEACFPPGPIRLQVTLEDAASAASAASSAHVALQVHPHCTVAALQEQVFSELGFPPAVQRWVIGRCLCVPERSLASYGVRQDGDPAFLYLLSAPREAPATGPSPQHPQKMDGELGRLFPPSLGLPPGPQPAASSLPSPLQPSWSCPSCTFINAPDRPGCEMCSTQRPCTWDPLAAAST
T3 sequence (Q9BYM8 whole entry): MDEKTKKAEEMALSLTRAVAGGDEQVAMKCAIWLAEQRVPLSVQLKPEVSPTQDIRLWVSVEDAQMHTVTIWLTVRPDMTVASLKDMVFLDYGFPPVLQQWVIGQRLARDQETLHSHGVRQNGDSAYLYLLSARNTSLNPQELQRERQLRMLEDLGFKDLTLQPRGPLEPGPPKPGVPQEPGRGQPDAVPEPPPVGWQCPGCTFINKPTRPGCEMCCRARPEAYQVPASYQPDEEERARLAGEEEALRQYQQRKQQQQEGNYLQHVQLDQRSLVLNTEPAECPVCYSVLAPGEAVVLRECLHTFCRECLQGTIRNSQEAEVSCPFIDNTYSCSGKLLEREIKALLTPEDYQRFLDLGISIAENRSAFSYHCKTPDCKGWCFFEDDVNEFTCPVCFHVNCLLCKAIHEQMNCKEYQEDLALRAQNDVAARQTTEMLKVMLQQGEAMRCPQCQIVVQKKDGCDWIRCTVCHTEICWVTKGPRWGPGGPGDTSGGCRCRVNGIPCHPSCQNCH
T3 sequence (Q96EP0 whole entry): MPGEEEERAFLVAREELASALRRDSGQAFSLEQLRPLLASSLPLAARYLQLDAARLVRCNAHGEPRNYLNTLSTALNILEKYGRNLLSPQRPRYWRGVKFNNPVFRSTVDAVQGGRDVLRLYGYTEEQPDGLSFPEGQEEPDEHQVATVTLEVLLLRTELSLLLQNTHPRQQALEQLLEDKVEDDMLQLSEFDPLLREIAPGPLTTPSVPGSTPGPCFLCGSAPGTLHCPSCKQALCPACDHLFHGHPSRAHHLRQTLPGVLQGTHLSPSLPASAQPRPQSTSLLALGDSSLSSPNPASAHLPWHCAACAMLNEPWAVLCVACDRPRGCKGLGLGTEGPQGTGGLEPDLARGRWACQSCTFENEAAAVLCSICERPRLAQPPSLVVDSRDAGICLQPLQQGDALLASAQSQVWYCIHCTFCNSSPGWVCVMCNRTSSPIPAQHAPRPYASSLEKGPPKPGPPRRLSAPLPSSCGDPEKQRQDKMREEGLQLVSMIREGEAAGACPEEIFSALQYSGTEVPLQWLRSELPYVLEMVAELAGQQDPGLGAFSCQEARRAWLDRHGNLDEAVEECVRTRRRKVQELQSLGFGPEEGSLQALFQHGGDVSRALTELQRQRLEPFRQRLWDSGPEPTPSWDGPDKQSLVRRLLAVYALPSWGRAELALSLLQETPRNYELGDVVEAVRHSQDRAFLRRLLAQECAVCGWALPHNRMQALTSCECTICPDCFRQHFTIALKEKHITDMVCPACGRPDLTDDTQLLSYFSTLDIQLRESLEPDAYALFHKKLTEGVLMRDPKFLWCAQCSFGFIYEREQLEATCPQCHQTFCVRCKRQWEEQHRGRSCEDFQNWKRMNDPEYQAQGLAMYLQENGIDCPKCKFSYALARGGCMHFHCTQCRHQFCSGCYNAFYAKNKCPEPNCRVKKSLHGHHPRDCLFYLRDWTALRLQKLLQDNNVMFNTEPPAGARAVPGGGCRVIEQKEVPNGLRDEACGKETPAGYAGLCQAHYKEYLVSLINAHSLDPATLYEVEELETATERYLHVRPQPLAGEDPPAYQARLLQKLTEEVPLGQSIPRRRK
In words: Inhibition of petit-LUBAC (unknown origin)-mediated ubiquitylation expressed in Escherichia coli BL21 after 2 hrs in presence of E1, UbcH5c, E3 and ubiquitin.

Assay [9] has as its target geranylgeranyltransferase type-I (Rattus norvegicus, UniProt P53610+Q04631). In words: Inhibition of rat brain GGTase1 assessed as decrease in transfer of [3H]H]geranylgeranyl from [3H]geranylgeranyl PPi to H-Ras-CVLL after 30 mins by liquid scintillation counting method.
Assay [10] is described as follows: Inhibition of UAE (unknown origin) assessed as decrease in formation of E2-UBL thioester reaction product. On the set-up: species or system Homo sapiens.
Assay [11] concerns the target SUMO-activating enzyme (Homo sapiens, UniProt Q9UBT2). Kind of assay: Inhibition of SAE (unknown origin) assessed as decrease in formation of E2-UBL thioester reaction product. It counts as protein-complex assay.
The target in assay [12] is T4, Ubiquitin-like modifier-activating enzyme ATG7 (Homo sapiens, UniProt O95352).
T4 sequence (O95352 whole entry): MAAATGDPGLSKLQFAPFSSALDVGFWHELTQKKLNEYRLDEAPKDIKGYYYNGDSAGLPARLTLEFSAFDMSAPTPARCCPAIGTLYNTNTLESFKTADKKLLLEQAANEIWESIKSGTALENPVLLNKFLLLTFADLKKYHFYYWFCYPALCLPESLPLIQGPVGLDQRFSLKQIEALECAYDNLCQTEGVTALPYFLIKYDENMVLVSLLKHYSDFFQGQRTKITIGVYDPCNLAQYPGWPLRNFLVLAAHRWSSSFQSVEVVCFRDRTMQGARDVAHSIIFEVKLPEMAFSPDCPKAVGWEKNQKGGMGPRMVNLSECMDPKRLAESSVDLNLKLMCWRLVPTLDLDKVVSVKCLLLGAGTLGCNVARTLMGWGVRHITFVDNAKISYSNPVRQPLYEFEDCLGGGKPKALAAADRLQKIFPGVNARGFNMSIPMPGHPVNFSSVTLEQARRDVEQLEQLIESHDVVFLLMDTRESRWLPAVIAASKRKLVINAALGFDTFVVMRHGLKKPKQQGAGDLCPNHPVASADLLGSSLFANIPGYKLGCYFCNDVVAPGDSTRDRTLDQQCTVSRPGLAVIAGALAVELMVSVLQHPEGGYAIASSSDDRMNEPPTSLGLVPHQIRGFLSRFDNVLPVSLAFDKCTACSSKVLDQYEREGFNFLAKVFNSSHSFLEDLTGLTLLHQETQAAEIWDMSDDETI
In words: Inhibition of ATG7 (unknown origin) assessed as decrease in formation of E2-UBL thioester reaction product.

Assay [13] concerns the target T5, Ubiquitin-like modifier-activating enzyme 6 (Homo sapiens, UniProt A0AVT1).
T5 sequence (A0AVT1 whole entry): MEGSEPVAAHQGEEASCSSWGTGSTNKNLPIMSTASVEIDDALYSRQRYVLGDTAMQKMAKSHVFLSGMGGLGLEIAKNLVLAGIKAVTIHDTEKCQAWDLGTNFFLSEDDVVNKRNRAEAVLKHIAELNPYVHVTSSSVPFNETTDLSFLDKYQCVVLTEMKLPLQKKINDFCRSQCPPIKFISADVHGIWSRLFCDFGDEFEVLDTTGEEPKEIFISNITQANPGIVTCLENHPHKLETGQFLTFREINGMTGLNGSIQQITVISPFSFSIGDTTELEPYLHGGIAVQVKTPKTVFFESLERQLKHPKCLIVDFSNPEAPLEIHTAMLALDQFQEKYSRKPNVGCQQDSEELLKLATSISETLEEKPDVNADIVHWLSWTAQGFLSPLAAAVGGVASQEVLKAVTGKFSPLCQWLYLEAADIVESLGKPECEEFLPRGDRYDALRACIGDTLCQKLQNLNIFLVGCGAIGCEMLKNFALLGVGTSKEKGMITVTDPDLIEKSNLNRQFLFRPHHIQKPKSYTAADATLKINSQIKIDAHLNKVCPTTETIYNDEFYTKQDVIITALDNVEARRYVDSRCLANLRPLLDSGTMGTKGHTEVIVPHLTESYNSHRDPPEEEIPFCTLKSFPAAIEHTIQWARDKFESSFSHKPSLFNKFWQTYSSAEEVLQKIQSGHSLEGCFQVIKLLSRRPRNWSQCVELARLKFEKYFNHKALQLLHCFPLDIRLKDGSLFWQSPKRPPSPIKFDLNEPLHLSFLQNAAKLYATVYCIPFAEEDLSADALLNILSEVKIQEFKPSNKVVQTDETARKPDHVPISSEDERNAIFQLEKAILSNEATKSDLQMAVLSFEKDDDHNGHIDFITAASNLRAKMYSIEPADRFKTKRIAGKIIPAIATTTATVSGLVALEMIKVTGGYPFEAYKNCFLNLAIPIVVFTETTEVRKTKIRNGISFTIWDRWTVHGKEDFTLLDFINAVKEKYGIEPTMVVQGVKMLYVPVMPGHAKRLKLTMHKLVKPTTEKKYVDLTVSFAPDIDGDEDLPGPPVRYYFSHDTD
In words: Inhibition of UBA6 (unknown origin) assessed as decrease in formation of E2-UBL thioester reaction product.

In assay [14] the target is T1, Geranylgeranyl transferase type I. Kind of assay: Inhibition of GGTase1 isolated from Kirsten virus-transformed human osteosarcoma cells using biotin-YRASNRSCAIL peptide as substrate after 120 mins in presence of [ 1-[ 3 H](n)]geranylgeranylpyrophosphate by scintillation proximity assay.
Assay [15] has as its target T6, Glycylpeptide N-tetradecanoyltransferase (Neosartorya fumigata (strain ATCC MYA-4609 / Af293 / CBS 101355 / FGSCA1100) (Aspergillus fumigatus), UniProt Q9UVX3).
T6 sequence (Q9UVX3 whole entry): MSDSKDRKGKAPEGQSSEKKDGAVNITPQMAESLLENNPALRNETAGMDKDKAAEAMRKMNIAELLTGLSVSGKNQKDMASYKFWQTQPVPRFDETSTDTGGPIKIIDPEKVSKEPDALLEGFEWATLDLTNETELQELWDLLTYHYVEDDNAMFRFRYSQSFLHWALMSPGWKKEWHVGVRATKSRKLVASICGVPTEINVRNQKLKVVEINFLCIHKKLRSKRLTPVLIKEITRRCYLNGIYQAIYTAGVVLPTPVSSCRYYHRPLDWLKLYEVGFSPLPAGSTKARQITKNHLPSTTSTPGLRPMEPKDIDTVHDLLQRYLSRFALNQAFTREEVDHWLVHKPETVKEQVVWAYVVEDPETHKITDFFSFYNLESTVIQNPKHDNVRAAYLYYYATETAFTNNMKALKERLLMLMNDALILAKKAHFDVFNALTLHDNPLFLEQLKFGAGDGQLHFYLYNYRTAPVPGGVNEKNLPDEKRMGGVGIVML
Kind of assay: Inhibition of recombinant Aspergillus fumigatus NMT (Gln86 to Leu492 residues) expressed in Escherichia coli BL21(DE3) pLysS cells using [3H]-myristoyl coenzyme A/CAP5.5 as substrate after 20 mins by scintillation proximity assay.

SUMO-activating enzyme, sequence (Q9UBE0 whole entry): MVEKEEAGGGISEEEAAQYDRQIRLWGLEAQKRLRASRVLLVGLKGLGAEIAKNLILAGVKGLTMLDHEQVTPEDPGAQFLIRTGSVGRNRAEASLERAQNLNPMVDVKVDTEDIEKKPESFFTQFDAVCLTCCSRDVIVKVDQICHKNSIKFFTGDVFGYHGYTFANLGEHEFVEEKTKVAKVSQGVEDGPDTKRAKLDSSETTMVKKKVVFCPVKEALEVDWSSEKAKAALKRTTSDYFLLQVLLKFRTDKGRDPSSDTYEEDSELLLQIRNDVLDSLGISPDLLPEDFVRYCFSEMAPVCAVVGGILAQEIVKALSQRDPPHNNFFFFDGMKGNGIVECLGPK
SUMO-activating enzyme, sequence (Q9UBT2 whole entry): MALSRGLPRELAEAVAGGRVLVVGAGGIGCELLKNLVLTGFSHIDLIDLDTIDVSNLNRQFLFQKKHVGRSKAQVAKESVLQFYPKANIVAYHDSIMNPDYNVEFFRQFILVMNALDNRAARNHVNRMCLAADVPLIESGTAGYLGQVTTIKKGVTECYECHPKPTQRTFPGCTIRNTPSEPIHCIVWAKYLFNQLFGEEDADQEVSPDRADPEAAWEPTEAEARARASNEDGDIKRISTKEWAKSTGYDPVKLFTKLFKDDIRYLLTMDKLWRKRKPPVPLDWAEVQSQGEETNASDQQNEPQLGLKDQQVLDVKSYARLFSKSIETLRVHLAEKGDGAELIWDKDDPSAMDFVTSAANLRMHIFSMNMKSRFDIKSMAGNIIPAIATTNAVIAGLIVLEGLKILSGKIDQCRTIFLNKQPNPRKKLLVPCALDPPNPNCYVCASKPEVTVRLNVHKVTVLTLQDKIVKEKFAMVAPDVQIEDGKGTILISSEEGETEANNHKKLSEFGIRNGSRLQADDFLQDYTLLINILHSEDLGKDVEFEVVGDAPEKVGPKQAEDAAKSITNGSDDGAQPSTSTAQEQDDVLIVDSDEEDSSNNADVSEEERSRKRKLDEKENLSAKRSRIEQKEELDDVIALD

As to `CC(C)C[C@H](NC(=O)c1ccc(NC[C@@H](N)CS)cc1-c1cccc2ccccc12)C(=O)O`, the half-inhibitory concentration (IC50) in assay [1] was found to be 50 nM; in [2] it was 200 nM.

As to `COC(=O)[C@H](CC(C)C)NC(=O)c1ccc(NC[C@@H](N)CS)cc1-c1ccccc1`, the half-inhibitory concentration (IC50) was above 30 µM in assay [3] and 2000 nM in assay [4].

For `COC(=O)[C@H](CCSC)NC(=O)CN1C[C@H](N(C)C(=O)[C@H](N)CS)N=C(c2ccccc2)c2ccccc21`, the IC50 in assay [5] was 41 nM; in [6] it was above 1000 nM.

As to `O=C(c1cn(Cc2cncn2Cc2ccc(Br)cc2)cc1-c1cccc2ccccc12)N1CCOCC1`, the half-maximal inhibitory concentration (IC50) in assay [7] was 0.8 nM.

On to `CN1C(=O)[C@]23CC4=CC=C[C@H](O)[C@H]4N2C(=O)[C@@]1(CO)SS3` [GLIOTOXIN], for which the half-inhibitory concentration (IC50) in [8] was 510 nM.

For `NC(=O)N1CCC(CC(=O)N2CCC([C@H]3c4ncc(Br)cc4CCc4cc(Cl)cc(Br)c43)CC2)CC1` [LONAFARNIB], the IC50 in assay [9] was above 1000 nM.

Take `NS(=O)(=O)OC[C@@H]1C[C@@H](n2ccc3c(N[C@H]4CCc5ccccc54)ncnc32)C[C@@H]1O` [PEVONEDISTAT]: the IC50 in [10], in [11], in [12] and in assay [13] was above 1000 nM in each case.

Take `Cn1cncc1[C@@](N)(c1ccc(Cl)cc1)c1ccc2c(c1)c(-c1cccc(Cl)c1)cc(=O)n2C` [TIPIFARNIB]: the IC50 in assay [14] was above 1000 nM.

For `Cc1c(NS(=O)(=O)c2c(Cl)cc(-c3ccnc(N4CCNCC4)c3)cc2Cl)c(CC(C)C)nn1C` [ZELENIRSTAT], the concentration for half-maximal inhibition (IC50) in [15] amounted to 12 nM.
